The source of these data is PubChem BioAssay (NCI).

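All cell lines were grown in 96-well plates and treated with compound for 48 hours. The concentration for 50% growth inhibition is given as GI50. Definition used: TGI = concentration required for complete inhibition of growth.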

What all share (assay): NCI tumour cell line growth inhibition, 48 h
In assay [1] the test system is ACHN renal.
Assay [2] relates to EKVX NSCLC.
Assay [3] has as its system MALME-3M melanoma.
In assay [4] the test system is MCF7 breast.
Assay [5] relates to RPMI-8226 leukemia.
Assay [6] has as its system SNB-19 CNS.
Assay [7] has as its system U251 CNS.
For assay [8], the system named is HL-60(TB) leukemia.

With `COc1cc2c(cc1OC(=O)c1cc3ccccc3[nH]1)N=C[C@@H]1CCCN1C2=O`, the TGI worked out at 13 µM in assay [1]; 3.2 µM in assay [2]; 2.24 µM in assay [3]; 13 µM in assay [4]; 1.95 µM in assay [5]; 3.04 µM in assay [6]. For the same compound, in assay [7], the TGI is 3.52 µM.
For `CCOC(=O)c1nc2cc(C(F)(F)F)ccc2nc1Nc1ccc(F)cc1`, the TGI in assay [2] was above 100 µM; in assay [3], above 100 µM; in assay [4] it was above 100 µM; in assay [5], 61.6 µM; in assay [7], above 100 µM.
For `COc1ccc(S(=O)(=O)Nc2ccc(-c3csc(N4C(=O)/C(=C/c5ccccc5)N=C4c4ccccc4)n3)cc2)cc1Cl`, the TGI was above 100 µM in assay [1]; 87.4 µM in assay [8]; above 100 µM in assay [3]; above 100 µM in assay [4]; above 100 µM in assay [6]; 78 µM in assay [7].
Consider `COc1ccc(/C=N\NC(=O)Nc2cccc3ccccc23)cc1`, for which the TGI in assay [1] is 66.6 µM; in assay [2], 95.2 µM; in assay [3], above 100 µM; in assay [4] it was above 100 µM; in assay [5], above 100 µM; in assay [6] it was 36.8 µM. In assay [7], the TGI was found to be 36.5 µM.
With `O=c1oc2c/c(=C\c3ccccc3)c(=O)c3cccc1c3-2`, the TGI in assay [1] is above 100 µM; in assay [2], above 100 µM; in assay [8], 71.1 µM; in assay [3], 52.7 µM; in assay [5] it was 88.1 µM; in assay [6] it was 67.9 µM. In addition, the TGI in assay [7] worked out at 37.2 µM.
For `NC(=O)c1ncn2c(=O)n(CCl)nnc12`, the TGI in assay [1], in assay [2], in assay [3], in assay [4], in assay [5] and in assay [6] was above 100 µM in each case. This compound also gave a TGI in assay [7] above 100 µM.
In the case of `COc1ccc2c(c1)CC1(O)COc3cc(OC)ccc3C1O2` (stereo unspecified), the TGI in assay [1], in assay [2], in assay [3], in assay [4], in assay [5] and in assay [7] was above 100 µM each time.
For the compound `Cc1cc(C)c2c(=N)c3ccccc3n(CCCCCCn3c4ccccc4c(=N)c4c(C)cc(C)nc43)c2n1`, the TGI worked out at 2.91 µM in assay [1]; 3.29 µM in assay [2]; 2.68 µM in assay [3]; 2.11 µM in assay [6]; 0.387 µM in assay [7].
Regarding `CCOC(=O)C1=CC(C)(C(=O)OCC)Nc2c(nc(SC)n(C)c2=O)N1` (stereo unspecified), the TGI in assay [1], in assay [2], in assay [3], in assay [4], in assay [5] and in assay [6] was above 10 µM throughout. Moreover, the TGI in assay [7] was above 10 µM.
On to `NNC(=O)CCC(NS(=O)(=O)c1ccc(Cl)cc1)C(=O)NN` (stereo unspecified), for which the TGI in assay [1], in assay [2], in assay [8], in assay [3], in assay [4] and in assay [6] was above 100 µM in each case. The TGI in assay [7] was above 100 µM.
`CCOC(=O)c1cn(CC)c2cc3c(cc2c1=O)CCS3(=O)=O`: the TGI in assay [1], in assay [2], in assay [8], in assay [3], in assay [4] and in assay [6] was above 100 µM throughout. In addition, the TGI in assay [7] is above 100 µM.
Turning to `Cn1cc(-c2nc(-c3c[nH]c4ccncc34)cs2)c2cc(F)ccc21`, the GI50 in assay [1] is 1.74 µM; in assay [2], 1.72 µM; in assay [3] it was 1.57 µM; in assay [4], 1.23 µM; in assay [6], 1.83 µM; in assay [7] it was 1.8 µM. Moreover, the TGI in assay [1] stood at 3.12 µM; in assay [2] it was 3.32 µM; in assay [3], 3.06 µM; in assay [4], 2.88 µM; in assay [6], 3.38 µM; in assay [7], 3.29 µM.
In the case of `CCOC(=O)C1C[C@H]2CO[C@H](c3ccccc3)N2C1=O` (stereo partly specified), the TGI in assay [1], in assay [2], in assay [3], in assay [4], in assay [5] and in assay [6] was above 100 µM in each case. This compound gave a TGI in assay [7] above 100 µM.
As for `CC1CC(=O)Nc2ccc(N=NN(C)C)cc2N1C=O` (stereo unspecified), the TGI in assay [1], in assay [2], in assay [3], in assay [4], in assay [5] and in assay [6] was above 100 µM in each case. Besides, the TGI in assay [7] was above 100 µM.
Consider `Cc1cc2c(c(C(=O)NCCC(=O)N[C@@H](C)C(=O)OCc3ccccc3)c1)Oc1c(cc(C)cc1C(=O)NCCC(=O)N[C@@H](C)C(=O)OCc1ccccc1)S2`, for which the TGI in assay [1], in assay [2], in assay [3], in assay [4], in assay [5] and in assay [6] was above 100 µM throughout. This compound also returned a TGI in assay [7] above 100 µM.
Consider `CC(C)(C)OC(=O)N1Cc2cc(O)ccc2C[C@H]1C(=O)O`, for which the TGI in assay [1], in assay [2], in assay [8], in assay [3], in assay [4] and in assay [6] was above 100 µM in each case. For the same compound, the TGI in assay [7] was above 100 µM.
For the compound `COc1cc(O)c2c(=O)c(OC)c(-c3ccc4c(c3)OCO4)oc2c1OC`, the TGI in assay [1], in assay [2], in assay [8], in assay [3], in assay [4] and in assay [6] was above 50 µM each time. Moreover, in assay [7], the TGI is above 50 µM.
As for `CC(=O)NC(C)c1ccc(N=NN2CCCC2)cc1` (stereo unspecified), the TGI in assay [1], in assay [2], in assay [8], in assay [3], in assay [4] and in assay [6] was above 100 µM each time. In assay [7], this compound registered a TGI above 100 µM.
As to `Clc1ccc2nc(CC3CCCC3)[nH]c2c1`, the TGI came to 32.6 µM in assay [1]; 43.5 µM in assay [2]; 45.1 µM in assay [3]; 22 µM in assay [4]; 50.3 µM in assay [5]; 64 µM in assay [6]. This compound also gave a TGI in assay [7] of 36.5 µM.
With `CN1CCN(/C(N)=C(\C#N)C(=O)Nc2ccccc2)CC1`, the TGI in assay [1], in assay [2], in assay [4], in assay [5], in assay [6] and in assay [7] was above 100 µM each time.
On to `Cn1c(N=[N+]=[N-])cc(=O)n(C)c1=O`, for which the TGI in assay [1], in assay [2], in assay [3], in assay [5], in assay [6] and in assay [7] was above 100 µM throughout.
As to `O=S(=O)(O)c1cc(Nc2ccnc3ccccc23)c2c(S(=O)(=O)O)cc(S(=O)(=O)O)cc2c1`, the TGI in assay [2], in assay [3], in assay [4], in assay [5] and in assay [7] was above 100 µM in each case.
In the case of `Cc1oncc1NC1=CC(=O)C(=O)c2ccccc21`, the TGI worked out at 16.7 µM in assay [1]; 32.5 µM in assay [2]; 7.06 µM in assay [8]; 8.69 µM in assay [3]; 9.63 µM in assay [4]; 46.8 µM in assay [6]. In assay [7], the TGI worked out at 17.3 µM.
As to `C=CC[C@@H]1C=C[C@@H](C(=O)OC)n2c(=O)n(-c3ccccc3)c(=O)n21`, the TGI in assay [1], in assay [2], in assay [4], in assay [5], in assay [6] and in assay [7] was above 100 µM each time.
Turning to `CCC/C(Cl)=N\OC(=O)Nc1ccc(F)c([N+](=O)[O-])c1`, the TGI is 18.1 µM in assay [1]; 29.9 µM in assay [2]; 22.8 µM in assay [3]; 75.5 µM in assay [4]; above 100 µM in assay [5]; 28.5 µM in assay [6]. The compound further showed a TGI in assay [7] of 37.3 µM.
In the case of `CC(C)=CCCC1(Sc2ccccc2)C(=O)OCC1C=C(C)C` (stereo unspecified), the TGI in assay [1] is above 100 µM; in assay [2], 79.7 µM; in assay [3], 40.7 µM; in assay [4] it was above 100 µM; in assay [5], 48.1 µM; in assay [6], above 100 µM. Further, the TGI in assay [7] is above 100 µM.
